Laboratory results: paper PMC13427755 (Nature Communications, 2026)
Where two headings read alike, the source gives them in different places. Where a SMILES comes first, the peptide text is derived from it.

Columns and labels:
[1] = test system: phosphorylated (p) AKT over total AKT; experiment: AKT/pAKT in PBMCs, MSD-ECL assay; assay type: in vivo, human
Procedure: (§1) Blood samples for biomarker assessments in PBMCs and platelet-rich plasma were collected prior to the initial dose and on day 14 following the last dose. Following optimization for detection of analytes in IPF matrices, meso-scale discovery electrochemiluminescence (MSD-ECL) assays were performed at BioAgylitix for SP-D (#K1519XR-2, MSD) in plasma and AKT/pAKT (#K15100D-1, MSD) in PBMCs according to manufacturer’s instructions.
(§2) Descriptive statistics are reported as medians with interquartile ranges (IQR). The Hodges-Lehmann estimator was used for the median difference between groups (treatment minus placebo), with approximate 90% confidence intervals (asymmetric, exact level varied slightly with small n). Cliff’s delta was calculated as effect size using the formula δ = (2U / (n1 × n2)) − 1, with thresholds: |δ | <0.3 small effect, 0.3–0.5 medium effect, >0.5 large effect. […] No adjustment for multiplicity was performed, as these were pre-specified, hypothesis-driven exploratory analyses. All biomarker statistical analyses were conducted using GraphPad Prism Version v10.0.

Healthy Adult Subjects = conditions: cited from earlier work
Procedure: Pivotal 28-day Good Laboratory Practice (GLP) toxicity studies were performed in rats and dogs. These studies were designed such that the high dose levels would achieve at least a 50-fold margin over the proposed high clinical dose as recommended in International Council for Harmonisation (ICH)-M3(R2) guidelines. […] These events were considered to be dose limiting and related to LTI-03. There was no evidence that the TEAEs in the 3 subjects described previously were secondary to an allergic response. In the 20 mg QD MAD cohorts there were mild decreases in FEV1 in two subjects that were not associated with TEAEs. These were not considered to be dose limiting. There were no serious adverse events (SAEs). All TEAEs were resolved 7 days after the treatment period. Further details can be ...

participants with IPF = assay type: in vivo, human
Procedure: This was a Phase 1b, randomized, double-blind, placebo-controlled, dose escalation study conducted at 6 sites in the United States, United Kingdom, Germany, and Australia (ClinicalTrials.gov: NCT05954988).
The full study protocol and statistical analysis plan are provided as Supplementary Notes 1 and 2, respectively. The completed CONSORT checklist for reporting of this study is provided as Supplementary Note 3.
Randomization was performed by interactive response system. Participants, study staff, and sponsor personnel were blinded to treatment assignment throughout the study.
Safety and tolerability assessments were performed through treatment and follow-up and included evaluation of TEAEs, concomitant medications, physical examinations, vital signs, 12-lead ECGs, clinical laboratory assessments, spirometry, and cough symptoms using the validated LCQ[22] and a cough VAS. Spirometry was performed according to American Thoracic Society (ATS) / European Respiratory Society (ERS) Task Force guidelines[46] at all clinic visits, with assessments conducted both pre-and post-dose on study drug dosing days. Study staff monitored participants’ self-administration of the study drug (the morning dose) during on-site visits, and symptoms were monitored for at least 1h.
The primary endpoint was the incidence of TEAEs reported from Day 1 through follow-up. TEAEs were coded using MedDRA (Version 26.1) and graded using the National Cancer Institute Common Terminology for Adverse Events (CTCAE) Version 5. Safety analyses included all participants who received the study drug. […] Placebo participants in each cohort were pooled for safety and biomarker analyses. No secondary endpoints were specified.

interleukin 11 (IL-11) = experiment: IL-11 ELISA in deep bronchial brushings (DBB); assay type: in vivo, human; conditions: for IL-11 in DBB, Δ from baseline, median (IQR): Day 14 minus screening
Description: (§3) Bronchoscopists were instructed to obtain a total of 6 brushings from 3 of the basilar bronchial segments of the right lower lobe: the anterior basilar segment, the lateral basilar segment, and the posterior basilar segment. With the bronchoscope proximal to or within the orifice of the appropriate basilar segment, the brush sheath was to be passed out 5 cm beyond the subsegment orifice, and then the brush was fully extended an additional 1 cm for a total of 6 cm beyond the orifice of the subsegmental bronchus. At the desired depth, the sheath was to be gently pulled back and forward for 15 strokes to brush the small airways. The brushing process was repeated using any combination of the 3 basilar segments described above, at the discretion of the bronchoscopist, for a total of 6 six separate brush samples.
(§4) Protein isolation and preparation of DBB samples for ELISAs were performed as previously described[47] according to manufacturer’s instructions for COL1A1 (#ab210966, abcam), CXCL7 (#LS-F4967-1, LS Bio), GAL7 (#DY1339, R&D Systems), IL-11 (#DY218, R&D Systems), and TSLP (#DY1398, R&D Systems).
as §2

[2] = test system: surfactant protein D (SP-D); experiment: SP-D in plasma, MSD-ECL assay; assay type: in vivo, human; conditions: for SP-D in plasma, Δ from baseline, median (IQR): Day 14 minus screening, N = 8; for SP-D in plasma, median difference vs placebo (Hodges-Lehmann): N = 8 vs pooled placebo N = 5
Procedure: as §1, §2

[3] = test system: chemokine (C-X-C motif) ligand 7 (CXCL7); experiment: CXCL7 ELISA in deep bronchial brushings (DBB); assay type: in vivo, human; conditions: for CXCL7 in DBB, Δ from baseline, median (IQR): Day 14 minus screening, N = 8; for CXCL7 in DBB, median difference vs placebo (Hodges-Lehmann): N = 8 vs pooled placebo N = 6
Description: as §3, §4, §2

[4] = 5 mg/day (2.5 mg BID) inhaled, 14 days, IPF, N = 9
[5] = 10 mg/day (5 mg BID) inhaled, 14 days, IPF, N = 9

SMILES: CC(C)[C@H](NC(=O)[C@@H](NC(=O)[C@H](Cc1ccccc1)NC(=O)[C@@H](NC(=O)[C@@H](NC(=O)[C@@H](N)Cc1ccccc1)[C@@H](C)O)[C@@H](C)O)[C@@H](C)O)C(=O)N[C@H](C(=O)O)[C@@H](C)O [LTI-03] (H-FTTFTVT-OH; N-terminus and C-terminus assumed)
- %p-AKT in PBMCs, Cliff's delta vs placebo ([1]; 5 mg/day): −0.33
- %p-AKT in PBMCs, Cliff's delta vs placebo ([1]; 10 mg/day): −0.13
- phosphorylated (p) AKT over total AKT levels in PBMCs ([1]; 5 and 10 mg/day vs placebo, 14 days): did not change
- tolerability, 3 lower dose MAD cohorts (Healthy Adult Subjects; healthy adults, 2.5 mg QD, 5 mg QD, 5 mg BID inhaled for up to 14 days, ref study LTI-03-1001): well tolerated
- TEAEs secondary to pulmonary airflow limitation, 40 mg QD MAD cohort (Healthy Adult Subjects; in vivo): dose limiting
- TEAE: Back pain (participants with IPF; [4]): 1 (11.1) n (%)
- TEAE: Body temperature increased (participants with IPF; [4]): 1 (11.1) n (%)
- TEAE: COVID-19 (participants with IPF; [4]): 1 (11.1) n (%)
- TEAE: Chest discomfort (participants with IPF; [4]): 1 (11.1) n (%)
- TEAE: Dysgeusia (participants with IPF; [4]): 1 (11.1) n (%)
- TEAE: Dyspnea, exertional (participants with IPF; [4]): 1 (11.1) n (%)
- TEAE: Fatigue (participants with IPF; [4]): 1 (11.1) n (%)
- TEAE: Hyperkaliemia (participants with IPF; [4]): 1 (11.1) n (%)
- TEAE: Ophthalmic migraine (participants with IPF; [4]): 1 (11.1) n (%)
- TEAE: Rhinorrhea (participants with IPF; [4]): 1 (11.1) n (%)
- TEAEs Grade 2 (participants with IPF; 5 mg/day (2.5 mg BID) inhaled, 14 days, IPF, N = 9, CTCAE v5): 1 (11.1) n (%)
- Serious TEAEs (participants with IPF; [5]): 1 (11.1) n (%)
- TEAE related to study drug: Dry Mouth (participants with IPF; [5]): 1 (11.1) n (%)
- TEAE related to study drug: Hypoesthesia oral (participants with IPF; [5]): 1 (11.1) n (%)
- TEAE related to study drug: Palpitations (participants with IPF; [5]): 1 (11.1) n (%)
- TEAE related to study drug: Throat Irritation (participants with IPF; [5]): 1 (11.1) n (%)
- TEAE: COVID-19 (participants with IPF; [5]): 0 n (%)
- TEAE: Cold sweat (participants with IPF; [5]): 1 (11.1) n (%)
- TEAE: Dry mouth (participants with IPF; [5]): 1 (11.1) n (%)
- TEAE: Hypoesthesia oral (participants with IPF; [5]): 1 (11.1) n (%)
- TEAE: Nasopharyngitis (participants with IPF; [5]): 1 (11.1) n (%)
- TEAE: Palpitations (participants with IPF; [5]): 1 (11.1) n (%)
- TEAE: Productive cough (participants with IPF; [5]): 1 (11.1) n (%)
- TEAE: Rhinorrhea (participants with IPF; [5]): 1 (11.1) n (%)
- TEAE: Throat irritation (participants with IPF; [5]): 1 (11.1) n (%)
- TEAE: Vertigo (participants with IPF; [5]): 1 (11.1) n (%)
- TEAE: Post procedural fever (participants with IPF; 10 mg/day (5 mg BID) inhaled, 14 days, IPF, N = 9, serious, Grade 2, unrelated): 1 (11.1) n (%)
- participants with TEAE cough (participants with IPF; in vivo): 44%
- TEAE: COVID-19 (participants with IPF; pooled 5 and 10 mg/day inhaled, 14 days, IPF, N = 18): 1 (5.6) n (%)
- IL-11 in DBB, Δ from baseline, median (IQR) (interleukin 11 (IL-11); 5 mg/day, N = 8): −11.037 pg/mg protein
- IL-11 in DBB, median difference vs placebo (Hodges-Lehmann) (interleukin 11 (IL-11); 5 mg/day, N = 8 vs pooled placebo N = 6, one-tailed Mann-Whitney p = 0.0406): −21.71 pg/mg protein
- IL-11 in DBB, Δ from baseline, median (IQR) (interleukin 11 (IL-11); 10 mg/day, N = 9): −6.528 pg/mg protein
- IL-11 in DBB, median difference vs placebo (Hodges-Lehmann) (interleukin 11 (IL-11); 10 mg/day, N = 9 vs pooled placebo N = 6, one-tailed Mann-Whitney p = 0.044): −19.15 pg/mg protein
- SP-D in plasma, Δ from baseline, median (IQR) ([2]; 5 mg/day): 3290 pg/mL
- SP-D in plasma, median difference vs placebo (Hodges-Lehmann) ([2]; 5 mg/day, one-tailed Mann-Whitney p = 0.3108): 3428 pg/mL
- SP-D in plasma, Δ from baseline, median (IQR) ([2]; 10 mg/day): -3264 pg/mL
- SP-D in plasma, median difference vs placebo (Hodges-Lehmann) ([2]; 10 mg/day, one-tailed Mann-Whitney p = 0.1111): -8368 pg/mL
- decrease of plasma SP-D compared to placebo ([2]; 10 mg/day, baseline to Day 14, p = 0.1111, not statistically significant): 5%
- CXCL7 in DBB, Δ from baseline, median (IQR) ([3]; 5 mg/day): −100.2 ng/mg protein
- CXCL7 in DBB, median difference vs placebo (Hodges-Lehmann) ([3]; 5 mg/day, one-tailed Mann-Whitney p = 0.5): 8.265 ng/mg protein
- CXCL7 in DBB, Δ from baseline, median (IQR) ([3]; 10 mg/day): −1276.23 ng/mg protein
- CXCL7 in DBB, median difference vs placebo (Hodges-Lehmann) ([3]; 10 mg/day, one-tailed Mann-Whitney p = 0.0248): −1262 ng/mg protein
